According to patent US7655768B2, “Galactose derivative, drug carrier and medicinal composition” (Nippon Shinyaku Co., Ltd., priority 2004, dated 2010):

System: HuH-7 cells (human hepatoma cell line)
Assay: Expression efficiency of luciferase plasmid DNA delivered by carrier compositions in HuH-7 cells
Assay type: cell-based
Settings: 24 hours after addition of composition, carriers of Examples 9 to 13 with rising content of the Example 2 derivative, compared with carrier of Comparative Example 1, FIG. 1
Experimental: By adding 50 μL of 10% maltose solution to 1 μg of the plasmid DNA encording luciferase gene, 50 μL of the plasmid solution containing the plasmid at 20 μg/mL was prepared. In addition, by adding 44 μL of 10% maltose solution to 6 μL of the dispersion liquid of the carrier according to Example 9 to 13 or Comparative Example 1, 50 μL of the diluted solution of the carrier at 600 μg/mL was prepared.
50 μL of the above nucleic acid solution was added to 50 μL of the above diluted solution of the carrier, and then mixed gently. Then, the sample was left at room temperature for 15 minutes to prepare 100 μL of the composition solution containing the above plasmid at 10 μg/mL.
HuH-7 cells (human hepatoma cell line) were seeded on a 96-well plate at 1×10^4 cells/well, and were incubated for 18 hours at 37° C. under 5% CO2. Then, 10 μL of the composition containing the carrier according to Example 9 to 13 or Comparative Example 1 prepared above (1) was added per well, and incubation was further continued. After 24 hours from addition of the composition, luciferase activity was measured. Luciferase activity was measured by detecting the bioluminescence with Top Count (manufactured by Packard), using Steady Glo Luciferase Assay System (manufactured by Promega). Meanwhile, a comparative control was a cell given the composition containing the carrier according to Comparative Example 1.

CCCCCCCC/C=C\CCCCCCCC(=O)OC[C@H](COP(=O)(O)OCCOCCOCCOCCOCCNC[C@H](O)[C@@H](O)[C@H](O[C@@H]1O[C@H](CO)[C@H](O)[C@H](O)[C@H]1O)[C@H](O)CO)OC(=O)CCCCCCC/C=C\CCCCCCCC [Example 2, L-α-dioleoylphosphatidyl{14-N-(1-deoxylactito-1-yl)amino-3,6,9,12-tetraoxa}tetradecanol]
expression efficiency of luciferase gene (luciferase activity): increased as compared with that in the comparative control as a function of concentration of the derivative of the present invention
